One experiment concerns noradrenaline (NA). Kind of experiment: Norepinephrine (NA) levels in mice treated with Aβ icv (FIG. 5b). Format: in vivo. As to conditions: PFC and HIPP. The procedure:
(§1) The Aβ1-42, obtained from Tocris (Bristol, UK), was dissolved in sterile double-distilled pyrogenic-free water, as vehicle, to obtain a final concentration 4 μM [Colaianna M et al. 2010]. Mice were anesthetized with a solution (0.85 in ml/kg, i.p.), containing ketamine (Sigma Aldrich, Milan, Italy, 100 mg/10 ml), xylazine (Sigma Aldrich, Milan, Italy, 100 mg/10 ml) and acepromazine (prequillant, ATI Azienda Terapeutica Veterinaria Srl, 10 mg/10 ml) dissolved in saline solution. […] At the time of dissection, the correct needle track was assessed. […]
All behavioral experiments were conducted at 5 or 30 min after sublingual administrations of βBA or vehicle in mice treated with SHAM or AP. Based on the observed behavioral results, neurochemical and biochemical quantifications were performed 30 min after administration of βCP, FE, and βBA or vehicle in SHAM- or Aβ-treated mice. […]
5-HT, noradrenaline (NA), and KYN levels were measured in the PFC and HIPP of mice by HPLC coupled with an electrochemical detector (Ultimate ECD, Thermo Scientific Dionex, Milan, Italy) as already reported [Francavilla M et al. 2012, Morgese M G et al. 2016]. […] GLU concentrations were determined by HPLC coupled with fluorescence detection (emission length 460 nm; excitation length 340 nm), as previously published [Francavilla M et al. 2012]. […]

The subject of the next experiment is NF-kB. Kind of experiment: NF-kB in PFC and HIPP of mice treated with Aβ icv, Western blotting (FIG. 10). Format: in vivo. As to conditions: after 7 days. The procedure: as §1
The total amount of proteins was measured in homogenates by using Pierce BCA Assay (Thermo Fisher Scientific, Cleveland, OH, USA). […] After HRP-conjugated specific antibody incubation, ECL reagent (Bio-Rad Laboratories Inc., Segrate (MI), Italy) was added to the immune complex and chemiluminescence was detected by ChemiDoc MP system (Bio-Rad Laboratories Inc., Segrate (MI), Italy). Optical densities of the bands were measured using Image J software (http://rsb.info.nih.gov/ij/ accessed on 15 Mar. 2021) and normalized against bands relative to -actin (1:5,000, Abcam, Cambridge, UK).
Background: In western blotting, separated proteins are transferred to a membrane and probed.

In the case of `C[C@H]1[C@H](C)CC[C@]2(C)CC[C@]3(C)C(=CC[C@@H]4[C@@]5(C)CC[C@@H](O)[C@](C)(C(=O)O)[C@@H]5CC[C@]43C)[C@H]12` [βBA, β-boswellic acid], the “Norepinephrine (NA) levels” value in the experiment on noradrenaline (NA) was “removes the reduction of NA induced by Aβ treatment and increases its expression in both PFC and HIPP compared with the control group”. In addition, the NF-kB tissue concentration result in the experiment with NF-kB is “progressive removal of the pro-inflammatory effect induced by Aβ”.

The values above are taken from patent publication US20260115162A1, “COMPOSITION OR ASSOCIATION OF COMPOUNDS PREFERABLY FOR USE IN THE TREATMENT OF NERVOUS DISEASES IN PARTICULAR NEURODEGENERATIVE DISEASES, METHOD FOR THE PREPARATION OF SUCH COMPOSITION OR ASSOCIATION OF COMPOUNDS AND USES THEREOF” (PHARMACEUTICA SAN MARCO S.R.L., priority 2022, published 2026).
